Assay results from PubChem BioAssay AID256 (DTP/NCI, 2004).
Values joined by “and” are separate entries in the source; they are usually repeats but may differ in a detail not shown here. Equal entries are not always repeated. Toxic doses and inconclusive results are not listed. Rule for the calls: active = survival T/C of 150% or more; inactive = T/C below 125% in these data.

Test system: CD2F1 mice, L1210 leukemia ip, survival T/C
Test: NCI In Vivo Anticancer Drug Screen. Data for tumor model L1210 Leukemia (intraperitoneal) in CD2F1 (CDF1) mice
Conditions: higher = longer survival
Procedure, shortened: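 Compound-dosed mice with transplantable tumor versus matched vehicle controls; endpoint ratio T/C reported.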

[1] = endpoint: mean survival time, dose: 25.0 mg/kg/injection, schedule: Q01DX009 (ip), vehicle: saline with Tween-80
[2] = endpoint: mean survival time, dose: 50.0 mg/kg/injection, schedule: Q01DX009 (ip), vehicle: saline with Tween-80
[3] = endpoint: mean survival time, dose: 100.0 mg/kg/injection, schedule: Q01DX001 (ip), vehicle: saline with Tween-80
[4] = endpoint: mean survival time, dose: 100.0 mg/kg/injection, schedule: Q01DX009 (ip), vehicle: saline with Tween-80
[5] = endpoint: mean survival time, dose: 200.0 mg/kg/injection, schedule: Q01DX001 (ip), vehicle: saline with Tween-80
[6] = endpoint: mean survival time, dose: 200.0 mg/kg/injection, schedule: Q01DX009 (ip), vehicle: saline with Tween-80
[7] = endpoint: mean survival time, dose: 400.0 mg/kg/injection, schedule: Q01DX001 (ip), vehicle: saline with Tween-80
[8] = endpoint: mean survival time, dose: 100.0 mg/kg/injection, schedule: Q04DX003 (ip), vehicle: saline with Tween-80
[9] = endpoint: mean survival time, dose: 200.0 mg/kg/injection, schedule: Q04DX003 (ip), vehicle: saline with Tween-80
[10] = endpoint: mean survival time, dose: 400.0 mg/kg/injection, schedule: Q04DX003 (ip), vehicle: saline with Tween-80
[11] = endpoint: mean survival time, dose: 100.0 mg/kg/injection, schedule: Q04DX003 (ip), vehicle: saline
[12] = endpoint: mean survival time, dose: 200.0 mg/kg/injection, schedule: Q04DX003 (ip), vehicle: saline
[13] = endpoint: mean survival time, dose: 400.0 mg/kg/injection, schedule: Q04DX003 (ip), vehicle: saline
[14] = endpoint: mean survival time, dose: 100.0 mg/kg/injection, schedule: Q04DX002 (ip), vehicle: saline with Tween-80
[15] = endpoint: mean survival time, dose: 200.0 mg/kg/injection, schedule: Q04DX002 (ip), vehicle: saline with Tween-80
[16] = endpoint: mean survival time, dose: 400.0 mg/kg/injection, schedule: Q04DX002 (ip), vehicle: saline with Tween-80
[17] = endpoint: mean survival time, dose: 25.0 mg/kg/injection, schedule: Q04DX003 (ip), vehicle: saline with Tween-80
[18] = endpoint: mean survival time, dose: 50.0 mg/kg/injection, schedule: Q04DX003 (ip), vehicle: saline with Tween-80
[19] = endpoint: mean survival time, dose: 400.0 mg/kg/injection, schedule: Q01DX009 (ip), vehicle: saline with Tween-80

Measured: T/C

CN(C)c1nc(N(C)C)nc(N(C)C)n1
inactive: endpoint: mean survival time, dose: 12.5 mg/kg/injection, schedule: Q01DX009 (ip), vehicle: saline with Tween-80 93 % of control and 103 % of control | endpoint: mean survival time, dose: 20.0 mg/kg/injection, schedule: Q01DX009 (ip), vehicle: Klucel (hydroxypropylcellulose) (HPC) 106 % of control | [1] 97 % of control and 102 % of control | endpoint: mean survival time, dose: 40.0 mg/kg/injection, schedule: Q01DX009 (ip), vehicle: Klucel (hydroxypropylcellulose) (HPC) 102 % of control | endpoint: mean survival time, dose: 50.0 mg/kg/injection, schedule: Q01DX001 (ip), vehicle: saline with Tween-80 96 % of control | [2] 97 % of control and 100 % of control | endpoint: mean survival time, dose: 80.0 mg/kg/injection, schedule: Q01DX009 (ip), vehicle: Klucel (hydroxypropylcellulose) (HPC) 106 % of control | [3] 104 % of control | [4] 96 % of control and 97 % of control | endpoint: mean survival time, dose: 160.0 mg/kg/injection, schedule: Q01DX009 (ip), vehicle: Klucel (hydroxypropylcellulose) (HPC) 100 % of control | [5] 97 % of control | [6] 100 % of control and 103 % of control | [7] 104 % of control | endpoint: median survival time, dose: 8.0 mg/kg/injection, schedule: Q03HX024 (ip), vehicle: Klucel (hydroxypropylcellulose) (HPC) 97 % of control | endpoint: median survival time, dose: 16.0 mg/kg/injection, schedule: Q03HX008 (ip), vehicle: Klucel (hydroxypropylcellulose) (HPC) 96 % of control | endpoint: median survival time, dose: 16.0 mg/kg/injection, schedule: Q03HX016 (ip), vehicle: Klucel (hydroxypropylcellulose) (HPC) 96 % of control | endpoint: median survival time, dose: 16.0 mg/kg/injection, schedule: Q03HX024 (ip), vehicle: Klucel (hydroxypropylcellulose) (HPC) 104 % of control | endpoint: median survival time, dose: 32.0 mg/kg/injection, schedule: Q01DX009 (ip), vehicle: Klucel (hydroxypropylcellulose) (HPC) 108 % of control | endpoint: median survival time, dose: 32.0 mg/kg/injection, schedule: Q03HX008 (ip), vehicle: Klucel (hydroxypropylcellulose) (HPC) 100 % of control | endpoint: median survival time, dose: 32.0 mg/kg/injection, schedule: Q03HX016 (ip), vehicle: Klucel (hydroxypropylcellulose) (HPC) 100 % of control | endpoint: median survival time, dose: 32.0 mg/kg/injection, schedule: Q03HX024 (ip), vehicle: Klucel (hydroxypropylcellulose) (HPC) 111 % of control | endpoint: median survival time, dose: 64.0 mg/kg/injection, schedule: Q01DX009 (ip), vehicle: Klucel (hydroxypropylcellulose) (HPC) 107 % of control | endpoint: median survival time, dose: 64.0 mg/kg/injection, schedule: Q04DX003 (ip), vehicle: Klucel (hydroxypropylcellulose) (HPC) 98 % of control | endpoint: median survival time, dose: 128.0 mg/kg/injection, schedule: Q01DX001 (ip), vehicle: Klucel (hydroxypropylcellulose) (HPC) 97 % of control | endpoint: median survival time, dose: 128.0 mg/kg/injection, schedule: Q01DX009 (ip), vehicle: Klucel (hydroxypropylcellulose) (HPC) 102 % of control | endpoint: median survival time, dose: 128.0 mg/kg/injection, schedule: Q04DX003 (ip), vehicle: Klucel (hydroxypropylcellulose) (HPC) 109 % of control | endpoint: median survival time, dose: 128.0 mg/kg/injection, schedule: Q08DX002 (ip), vehicle: Klucel (hydroxypropylcellulose) (HPC) 98 % of control | endpoint: median survival time, dose: 256.0 mg/kg/injection, schedule: Q01DX001 (ip), vehicle: Klucel (hydroxypropylcellulose) (HPC) 98 % of control | endpoint: median survival time, dose: 256.0 mg/kg/injection, schedule: Q04DX003 (ip), vehicle: Klucel (hydroxypropylcellulose) (HPC) 114 % of control | endpoint: median survival time, dose: 256.0 mg/kg/injection, schedule: Q08DX002 (ip), vehicle: Klucel (hydroxypropylcellulose) (HPC) 98 % of control

O=[N+]([O-])c1ccc(-c2cn3ccsc3n2)cc1
inactive: endpoint: mean survival time, dose: 100.0 mg/kg/injection, schedule: Q01DX001 (ip), vehicle: Klucel (hydroxypropylcellulose) (HPC) 87 % of control | endpoint: mean survival time, dose: 200.0 mg/kg/injection, schedule: Q01DX001 (ip), vehicle: Klucel (hydroxypropylcellulose) (HPC) 90 % of control | endpoint: mean survival time, dose: 400.0 mg/kg/injection, schedule: Q01DX001 (ip), vehicle: Klucel (hydroxypropylcellulose) (HPC) 90 % of control

Cc1cccnc1NC1=NCCO1
inactive: [8] 101 % of control | [9] 98 % of control | [10] 98 % of control

O.O.[NH-]C1CCCCC1[NH-].[Pt+2] (stereo not given)
inactive: endpoint: mean survival time, dose: 0.31 mg/kg/injection, schedule: Q01DX009 (ip), vehicle: dextrose 109 % of control | endpoint: mean survival time, dose: 0.63 mg/kg/injection, schedule: Q04DX003 (ip), vehicle: water 124 % of control | endpoint: mean survival time, dose: 1.25 mg/kg/injection, schedule: Q01DX009 (ip), vehicle: dextrose 124 % of control

COc1cc(C)ccc1C1=CCCCC1
inactive: [11] 95 % of control | [12] 95 % of control | [13] 87 % of control

CCOc1nc(-c2ccccc2)nc(N)c1Cl
inactive: [14] 98 % of control | [15] 98 % of control | [16] 98 % of control

COC1=C(N2CC2)C(=O)C(OC)=C(N2CC2)C1=O
inactive: endpoint: mean survival time, dose: 0.9 mg/kg/injection, schedule: Q01DX015 (ip), vehicle: saline 115 % of control | endpoint: mean survival time, dose: 1.3 mg/kg/injection, schedule: Q01DX015 (ip), vehicle: saline 119 % of control | endpoint: mean survival time, dose: 3.0 mg/kg/injection, schedule: Q01DX015 (ip), vehicle: saline 113 % of control

CC(=O)N(N)c1ccccc1
inactive: [3] 105 % of control | [5] 109 % of control | [7] 105 % of control

Cc1ccc(C)c(C(=O)O)c1N
inactive: [8] 95 % of control | [9] 95 % of control | [10] 100 % of control

O=C(NNc1ccccc1OCc1ccccc1)C(F)(F)F
inactive: [8] 102 % of control | [9] 103 % of control | [10] 103 % of control

O=C1C(Sc2ccc3ccccc3c2)=C(Sc2ccc3ccccc3c2)C(=O)c2ccccc21
inactive: [17] 94 % of control | [18] 94 % of control

O=S1(=O)CCC2C1C1(Cl)C(Cl)=C(Cl)C2(Cl)C1(Cl)Cl (stereo not given)
inactive: endpoint: mean survival time, dose: 12.5 mg/kg/injection, schedule: Q01DX009 (ip), vehicle: saline sonified 104 % of control | endpoint: mean survival time, dose: 12.5 mg/kg/injection, schedule: Q04DX003 (ip), vehicle: saline with Tween-80 103 % of control | endpoint: mean survival time, dose: 25.0 mg/kg/injection, schedule: Q01DX009 (ip), vehicle: saline sonified 103 % of control | [17] 97 % of control | [18] 98 % of control

CCCCCCCCCCCCNCCC#N
inactive: [1] 100 % of control | [2] 101 % of control | [4] 95 % of control | [8] 93 % of control | [9] 87 % of control

Cc1nc(-c2ccccc2)[nH]c(=O)c1CCO
inactive: [8] 100 % of control | [9] 100 % of control | [10] 111 % of control

Oc1c(CN2CCOCC2)cc(CN2CCOCC2)cc1CN1CCOCC1
inactive: [4] 100 % of control | [6] 95 % of control | [19] 100 % of control

CC(C)C1=CC2=CCC3C(C)(C(=O)O)CCCC3(C)C2CC1 (stereo not given)
inactive: [1] 103 % of control | [2] 98 % of control | [3] 98 % of control | [4] 96 % of control | [5] 95 % of control | [6] 96 % of control | [7] 102 % of control | [19] 97 % of control

O=S1(=O)CC(S(=O)(=O)O)C(S(=O)(=O)O)C1 (stereo not given)
inactive: [11] 93 % of control | [12] 101 % of control | [13] 93 % of control

CC(C)C(Br)C(=O)NC(Cc1ccccc1)C(=O)O (stereo not given)
inactive: [8] 101 % of control | [9] 110 % of control | [10] 122 % of control

CC(C)(C)/[N+]([O-])=N/O
inactive: endpoint: mean survival time, dose: 75.0 mg/kg/injection, schedule: Q01DX001 (ip), vehicle: saline 101 % of control

COC1OC(COC(c2ccccc2)(c2ccccc2)c2ccccc2)C(OC(C)=O)C1OC(C)=O (stereo not given)
inactive: endpoint: mean survival time, dose: 100.0 mg/kg/injection, schedule: Q04DX003 (ip), vehicle: Klucel (hydroxypropylcellulose) (HPC) 109 % of control | endpoint: mean survival time, dose: 200.0 mg/kg/injection, schedule: Q04DX003 (ip), vehicle: Klucel (hydroxypropylcellulose) (HPC) 89 % of control | endpoint: mean survival time, dose: 400.0 mg/kg/injection, schedule: Q04DX003 (ip), vehicle: Klucel (hydroxypropylcellulose) (HPC) 89 % of control

CC12C(=O)C(C)(C(c3ccccc3)=C1c1ccccc1)C([N+](=O)[O-])C2c1ccccc1 (stereo not given)
inactive: [14] 94 % of control | [15] 97 % of control | [16] 94 % of control

CO[C@H]1/C=C/O[C@@]2(C)Oc3c(C)c(O)c4c(O)c(c(/C=N/N5C(C)CN(Cc6ccccc6)CC5C)c(O)c4c3C2=O)NC(=O)/C(C)=C\C=C\[C@H](C)[C@H](O)[C@@H](C)[C@@H](O)[C@@H](C)[C@H](OC(C)=O)[C@@H]1C (stereo not given in full)
inactive: [2] 96 % of control | [4] 100 % of control | [6] 96 % of control | [9] 90 % of control
